Results: patent US6800280B2, “Methods for treating HIV-infected patients by the administration of GM-CSF and a protease inhibitor” (Schering AG, priority 1997, dated 2004)
“And” between values parts separate entries of the source, which are not always exact repeats. Identical values can stand only once. “Also recorded” adds a separate entry of the source.

Key:
HIV = experiment: Phase I/II trial: HIV viral load by RNA-PCR (Amplicor) in HIV-infected patients; format: in vivo, Human Immunodeficiency Virus (HIV); conditions: GM-CSF group versus placebo group throughout the study, concurrent antiretroviral drugs
Experimental: (§1) A study was conducted to determine the safety and efficacy of human GM-CSF as a therapeutic reagent in HIV-infected patients. Because some in vitro studies had indicated the possibility that GM-CSF might enhance HIV replication in vivo, this study assessed the impact of co-administration of GM-CSF with an antiretroviral agent on HIV replication. HIV viral burden was measured by the RNA-PCR (Amplicor®) method. To assess the effects of this treatment on lymphocyte counts, blood samples were analyzed throughout the study for determination of CD3^+, CD4^+, and CD8^+ T-lymphocyte counts.
This study was a Phase I/II, randomized, double-blind, placebo-controlled, two-center trial involving patients with HIV disease. […] Viral load was determined at baseline (mean of three determinations within fourteen days of study entry), then at two weeks, four weeks, and eight weeks after starting study drugs, and on two separate occasions approximately four weeks after the conclusion of the treatment phase (post-treatment evaluation). […]
At 2, 4 and 8 weeks after the start of study drug and at follow-up (approximately 4 weeks after completion of study drug), patients were examined, their medical histories were updated, and samples were taken for laboratory studies. A central laboratory was utilized for HIV quantification laboratory tests in order to standardize procedures and minimize variability. […]

[1] = system: CD4^+ T-lymphocyte counts; experiment: Phase I/II randomized, double-blind, placebo-controlled trial: CD4^+ T-lymphocyte counts in HIV-infected patients; format: in vivo, human
Experimental: as §1
This study was a Phase I/II, randomized, double-blind, placebo-controlled, two-center trial involving patients with HIV disease. Patients meeting specific entry criteria were randomized to treatment with GM-CSF or placebo, and these were administered by subcutaneous injection three times per week for eight weeks. Viral load was determined at baseline (mean of three determinations within fourteen days of study entry), then at two weeks, four weeks, and eight weeks after starting study drugs, and on two separate occasions approximately four weeks after the conclusion of the treatment phase (post-treatment evaluation). Clinical and lymphocyte subset evaluations were performed at each of these same time points (i.e., pre-treatment, week 2, week 4, week 8, and 4 weeks post-study). Twenty patients were enrolled in the study, ten per treatment arm. All twenty patients completed the study.
Patients were eligible for inclusion in the study if the following parameters were met: documented HIV infection, including detectable RNA-PCR during baseline evaluation period, age ≧18 years (or legal age of consent), adequate hematologic function, satisfactory hepatic and renal function, adequate clinical performance status, treatment with an antiretroviral regimen that included either ritonavir or indinavir for at least 8 weeks prior to study enrollment and agreement to continue on a stable regimen throughout the study, ability and willingness to provide written informed consent, agreement to practice medically-approved contraception.
Patients were ineligible for inclusion in the study if the following exclusion criteria were met: concurrent pregnancy or breast feeding, concurrent use of other colony stimulating factors or cytokines (other than erythropoietin), life-expectancy <90 days, concurrent radiation or systemic cancer chemotherapy (or within 2 weeks prior to study entry), inability to self-administer or arrange for administration of subcutaneous injections, significant cardiac disease, prior history of adverse reaction to yeast-derived rhu GM-CSF which would prohibit retreatment, active infection (AIDS-related or not) requiring acute systemic therapy within 8 weeks prior to study enrollment, vaccination of any kind within 8 weeks of study enrollment.
Study participants were randomly assigned to receive either active GM-CSF or placebo. Patients were instructed in methods for self-administration of study medication and received preloaded syringes or vials with empty syringes for home use.
The formulation of recombinant human GM-CSF utilized in this clinical trial was LEUKINE® (commercially available from Immunex Corporation, Seattle, Wash.). LEUKINE® and placebo were supplied as lyophilized powders. Both LEUKINE® and placebo were reconstituted by the aseptic injection of Bacteriostatic Water for Injection, USP, containing 0.9% benzyl alcohol. […] These were 40 mg mannitol, USP; 10 mg sucrose, NF; and 1.2 mg TRIS (tromethamine), USP; per vial of study drug. Vials containing placebo were labeled in a fashion identical to vials containing LEUKINE®. Vials of placebo and LEUKINE® were stored refrigerated at 2-8° C. (36-46° F.). […]

[2] = WEEK 2, 9 patients, 250 mcg s.c. three times per week
[3] = WEEK 4, 10 patients, 250 mcg s.c. three times per week
[4] = WEEK 8, 10 patients, 250 mcg s.c. three times per week
[5] = WEEK 12 (post-treatment), 10 patients

Substance: GM-CSF: biosynthetic, yeast-derived, recombinant human GM-CSF; single 127 amino acid glycoprotein with leucine instead of proline at position 23
- Change in viral load (in words) (HIV): no significant increase; also recorded: No significant differences; also recorded: without a concurrent increase
- Effect on CD4^+ T-lymphocyte counts (in words) ([1]; GM-CSF arm versus baseline / placebo, patients concurrently receiving antiretroviral drugs): a trend towards an increase; also recorded: increased at all of the evaluation points; also recorded: significant increase
- Change in CD4^+ T-Lymphocyte Counts Relative to Baseline, Mean (Sd) [1, 2]: 39 (150)
- Change in CD4^+ T-Lymphocyte Counts Relative to Baseline, Median [1, 2]: −9
- Change in CD4^+ T-Lymphocyte Counts Relative to Baseline, Min-Max [1, 2]: −79-389
- Change in CD4^+ T-Lymphocyte Counts Relative to Baseline, Mean (Sd) [1, 3]: 40 (68)
- Change in CD4^+ T-Lymphocyte Counts Relative to Baseline, Median [1, 3]: 34
- Change in CD4^+ T-Lymphocyte Counts Relative to Baseline, Min-Max [1, 3]: −61-135
- Change in CD4^+ T-Lymphocyte Counts Relative to Baseline, Mean (Sd) [1, 4]: 79 (172)
- Change in CD4^+ T-Lymphocyte Counts Relative to Baseline, Median [1, 4]: 4
- Change in CD4^+ T-Lymphocyte Counts Relative to Baseline, Min-Max [1, 4]: −68-424
- Change in CD4^+ T-Lymphocyte Counts Relative to Baseline, Mean (Sd) [1, 5]: 28 (54)
- Change in CD4^+ T-Lymphocyte Counts Relative to Baseline, Median [1, 5]: 30
- Change in CD4^+ T-Lymphocyte Counts Relative to Baseline, Min-Max [1, 5]: −68-112
- Absolute CD4^+ T-Lymphocyte Counts, Baseline CD4 ([1]; individual patients of GM-CSF arm, baseline (pre-treatment), on ritonavir or indinavir regimen): 276 and 383 and 65 and 590 and 152 and 91 and 24 (2×) and 40 and 136
- Absolute CD4^+ T-Lymphocyte Counts, Post-Study CD4 ([1]; individual patients, approximately 4 weeks after completion of 8-week treatment, 250 mcg s.c. three times per week): 208 and 373 and 77 and 659 and 199 and 161 and 11 and 33 and 136 and 200
- Absolute CD4^+ T-Lymphocyte Counts, Week 2 CD4 ([1]; individual patients, week 2, 250 mcg s.c. three times per week for eight weeks, concurrent ritonavir or indinavir regimen): 229 and 304 and 227 and 979 and 77 and 25 and 26 and 15 and 157
- Absolute CD4^+ T-Lymphocyte Counts, Week 4 CD4 ([1]; individual patients, week 4, 250 mcg s.c. three times per week for eight weeks, concurrent ritonavir or indinavir regimen): 356 and 477 and 31 and 725 and 91 and 219 and 12 and 61 and 26 and 182
- Absolute CD4^+ T-Lymphocyte Counts, Week 8 CD4 ([1]; individual patients, week 8, 250 mcg s.c. three times per week for eight weeks, concurrent ritonavir or indinavir regimen): 238 and 750 and 76 and 1014 and 84 and 162 and 21 and 29 and 18 and 176
- Absolute CD4^+ T-Lymphocyte Counts, Post-Study CD4, Median ([1]; median of GM-CSF arm, approximately 4 weeks post-treatment): 180
- Absolute CD4^+ T-Lymphocyte Counts, Baseline CD4, Median ([1]; median of GM-CSF arm, baseline (pre-treatment)): 114
- Absolute CD4^+ T-Lymphocyte Counts, Week 2 CD4, Median ([1]; median of GM-CSF arm, week 2, 250 mcg s.c. three times per week): 157
- Absolute CD4^+ T-Lymphocyte Counts, Week 4 CD4, Median ([1]; median of GM-CSF arm, week 4, 250 mcg s.c. three times per week): 137
- Absolute CD4^+ T-Lymphocyte Counts, Week 8 CD4, Median ([1]; median of GM-CSF arm, week 8, 250 mcg s.c. three times per week): 123
- MAXIMUM CHANGE > 30% THRU WEEK 8, n/N ([1]; patients with CD4^+ change of 30% or more over baseline / patients counted, thru week 8): 6/10
- MAXIMUM CHANGE > 30% THRU WEEK 12, n/N ([1]; patients with CD4^+ change of 30% or more over baseline / patients counted, thru week 12): 8/10
- MAXIMUM CHANGE > 30% THRU WEEK 12, (%) of patients ([1]; share of patients with CD4^+ change of 30% or more over baseline, thru week 12): (80%)
